Test results published in patent US20010053796A1, “Delta-aminolevulinic acid for prevention and treatment of infection microorganisms and parasite” (priority 2000, published 2001).
Where two headings read alike, the source gives them in different places.

System: Scutica
Test: Extinction effect for Scutica in vitro
Type: cell-based
Method: Scutica used in this experiment was taken from epidermal mucus of infected flatfish and suspended in HBSS. The suspension was kept at room temperature for 30 min and centrifuged at 800 rpm for 10 min. The supernatant was removed. The pellet was suspended in MEM-10 (minimum essential medium, 10% FBS, streptomycine, penicilin) and kept for 30 min, and then centrifuged in the same manner as above. The supernatant was removed and left imagoes was gained and made into imagoes suspension with certain number of imagoes by counting with the blood counting machine. The imagoes suspension was subcultured in vitro and inoculated to prepared FHM cell of certain number (2.5×10^5 cells/mL) and then cultured at 17° C. Before carrying out the experiment, by measuring the extinction effect for Scutica according to the concentration of δ-aminolevulinic acid and reaction time, optimum δ-aminolevulinic acid concentration and treatment time was examined for Scutica extermination. The Scutica culture solution cultured in FHM cell line was centrifuged at 3000 rpm for 5 min. The supernatant was removed and was added to PBS. It was washed 3 times to use for the experiment. 1.0 M δ-aminolevulinic acid solution made from sterilized 3rd distilled water was diluted by 2-fold up to 1000-fold (1.0 mM). Scutica was added to each well of 96-well microplate at an amount of 50 μL. Then, δ-aminolevulinic acid solution diluted by 2 steps were added and cultured for 120 min while the viability of Scutica was monitored. During the culture for 120 min, extinction time was measured in 10 min intervals, at each concentration. Between each inoculation, they were stirred for 5 min and were kept for 5 min. after reaction, 1% trypan blue which is staining solution for organism was added to each wells at an amount of 100 μL and mixed. In cultured Scutica with the diluted solution of δ-aminolevulinic acid, the number of parasites was counted by the blood counting machine, according to time. […] Through the 60 min-treatment, more than 50% of Scutica were extinct. At the actual concentration of 2 mM, about 50% of Scutica was extinct through 1 hour-treatment.

NCC(=O)CCC(=O)O [δ-aminolevulinic acid]
Scutica extinct (500 mM to 2 mM, treatment of at minimum 2 hours): more than 90%
time to completely extinct Scutica (30˜15 mM): 20 min
time to completely extinct Scutica (500 to 60 mM): 10 min
Scutica extinct (60 min-treatment, concentration not given): more than 50%
Scutica extinct (actual concentration of 2 mM, 1 hour-treatment): about 50%
time to completely extinct Scutica (actual concentration of 8 mM): 60 min
viability at 2000 µM (read-out: Viability (%) of Scutica, 2.0 mM, reaction time 10): 50%
viability at 2000 µM (read-out: Viability (%) of Scutica, 2.0 mM, reaction time 20): 60%
viability at 2000 µM (read-out: Viability (%) of Scutica, 2.0 mM, reaction time 30): 40%
viability at 2000 µM (read-out: Viability (%) of Scutica, 2.0 mM, reaction time 40): 45%
viability at 2000 µM (read-out: Viability (%) of Scutica, 2.0 mM, reaction time 50): 35%
viability at 2000 µM (read-out: Viability (%) of Scutica, 2.0 mM, reaction time 60): 55%
viability at 2000 µM (read-out: Viability (%) of Scutica, 2.0 mM, reaction time 70): 40%
viability at 2000 µM (read-out: Viability (%) of Scutica, 2.0 mM, reaction time 80): 40%
viability at 2000 µM (read-out: Viability (%) of Scutica, 2.0 mM, reaction time 90): 35%
viability at 2000 µM (read-out: Viability (%) of Scutica, 2.0 mM, reaction time 110): 40%
viability at 2000 µM (read-out: Viability (%) of Scutica, 2.0 mM, reaction time 120): 10%
viability at 4000 µM (read-out: Viability (%) of Scutica, 4.0 mM, reaction time 10): 50%
viability at 4000 µM (read-out: Viability (%) of Scutica, 4.0 mM, reaction time 20): 50%
viability at 4000 µM (read-out: Viability (%) of Scutica, 4.0 mM, reaction time 30): 30%
viability at 4000 µM (read-out: Viability (%) of Scutica, 4.0 mM, reaction time 40): 30%
viability at 4000 µM (read-out: Viability (%) of Scutica, 4.0 mM, reaction time 50): 20%
viability at 4000 µM (read-out: Viability (%) of Scutica, 4.0 mM, reaction time 60): 45%
viability at 4000 µM (read-out: Viability (%) of Scutica, 4.0 mM, reaction time 70): 30%
viability at 4000 µM (read-out: Viability (%) of Scutica, 4.0 mM, reaction time 80): 45%
viability at 4000 µM (read-out: Viability (%) of Scutica, 4.0 mM, reaction time 90): 40%
viability at 4000 µM (read-out: Viability (%) of Scutica, 4.0 mM, reaction time 110): 10%
viability at 4000 µM (read-out: Viability (%) of Scutica, 4.0 mM, reaction time 120): 10%
viability at 8000 µM (read-out: Viability (%) of Scutica, 8.0 mM, reaction time 10): 45%
viability at 8000 µM (read-out: Viability (%) of Scutica, 8.0 mM, reaction time 20): 50%
viability at 8000 µM (read-out: Viability (%) of Scutica, 8.0 mM, reaction time 30): 45%
viability at 8000 µM (read-out: Viability (%) of Scutica, 8.0 mM, reaction time 40): 25%
viability at 8000 µM (read-out: Viability (%) of Scutica, 8.0 mM, reaction time 50): 40%
viability at 8000 µM (read-out: Viability (%) of Scutica, 8.0 mM, reaction time 60): 40%
viability at 8000 µM (read-out: Viability (%) of Scutica, 8.0 mM, reaction time 70): 0%
viability at 8000 µM (read-out: Viability (%) of Scutica, 8.0 mM, reaction time 80): 0%
viability at 8000 µM (read-out: Viability (%) of Scutica, 8.0 mM, reaction time 90): 0%
viability at 8000 µM (read-out: Viability (%) of Scutica, 8.0 mM, reaction time 110): 0%
viability at 8000 µM (read-out: Viability (%) of Scutica, 8.0 mM, reaction time 120): 0%
viability at 15000 µM (read-out: Viability (%) of Scutica, 15 mM, reaction time 10): 30%
viability at 15000 µM (read-out: Viability (%) of Scutica, 15 mM, reaction time 20): 0%
viability at 15000 µM (read-out: Viability (%) of Scutica, 15 mM, reaction time 30): 0%
viability at 15000 µM (read-out: Viability (%) of Scutica, 15 mM, reaction time 40): 0%
viability at 15000 µM (read-out: Viability (%) of Scutica, 15 mM, reaction time 50): 0%
viability at 15000 µM (read-out: Viability (%) of Scutica, 15 mM, reaction time 60): 0%
viability at 15000 µM (read-out: Viability (%) of Scutica, 15 mM, reaction time 70): 0%
viability at 15000 µM (read-out: Viability (%) of Scutica, 15 mM, reaction time 80): 0%
viability at 15000 µM (read-out: Viability (%) of Scutica, 15 mM, reaction time 90): 0%
viability at 15000 µM (read-out: Viability (%) of Scutica, 15 mM, reaction time 110): 0%
viability at 15000 µM (read-out: Viability (%) of Scutica, 15 mM, reaction time 120): 0%
viability at 30000 µM (read-out: Viability (%) of Scutica, 30 mM, reaction time 10): 20%
viability at 30000 µM (read-out: Viability (%) of Scutica, 30 mM, reaction time 20): 0%
viability at 30000 µM (read-out: Viability (%) of Scutica, 30 mM, reaction time 30): 0%
viability at 30000 µM (read-out: Viability (%) of Scutica, 30 mM, reaction time 40): 0%
viability at 30000 µM (read-out: Viability (%) of Scutica, 30 mM, reaction time 50): 0%
viability at 30000 µM (read-out: Viability (%) of Scutica, 30 mM, reaction time 60): 0%
viability at 30000 µM (read-out: Viability (%) of Scutica, 30 mM, reaction time 70): 0%
viability at 30000 µM (read-out: Viability (%) of Scutica, 30 mM, reaction time 80): 0%
viability at 30000 µM (read-out: Viability (%) of Scutica, 30 mM, reaction time 90): 0%
viability at 30000 µM (read-out: Viability (%) of Scutica, 30 mM, reaction time 110): 0%
viability at 30000 µM (read-out: Viability (%) of Scutica, 30 mM, reaction time 120): 0%
viability at 60000 µM (read-out: Viability (%) of Scutica, 60 mM, reaction time 10): 0%
viability at 60000 µM (read-out: Viability (%) of Scutica, 60 mM, reaction time 20): 0%
viability at 60000 µM (read-out: Viability (%) of Scutica, 60 mM, reaction time 30): 0%
viability at 60000 µM (read-out: Viability (%) of Scutica, 60 mM, reaction time 40): 0%
viability at 60000 µM (read-out: Viability (%) of Scutica, 60 mM, reaction time 50): 0%
viability at 60000 µM (read-out: Viability (%) of Scutica, 60 mM, reaction time 60): 0%
viability at 60000 µM (read-out: Viability (%) of Scutica, 60 mM, reaction time 70): 0%
viability at 60000 µM (read-out: Viability (%) of Scutica, 60 mM, reaction time 80): 0%
viability at 60000 µM (read-out: Viability (%) of Scutica, 60 mM, reaction time 90): 0%
viability at 60000 µM (read-out: Viability (%) of Scutica, 60 mM, reaction time 110): 0%
viability at 60000 µM (read-out: Viability (%) of Scutica, 60 mM, reaction time 120): 0%
viability at 125000 µM (read-out: Viability (%) of Scutica, 125 mM, reaction time 10): 0%
viability at 125000 µM (read-out: Viability (%) of Scutica, 125 mM, reaction time 20): 0%
viability at 125000 µM (read-out: Viability (%) of Scutica, 125 mM, reaction time 30): 0%
viability at 125000 µM (read-out: Viability (%) of Scutica, 125 mM, reaction time 40): 0%
viability at 125000 µM (read-out: Viability (%) of Scutica, 125 mM, reaction time 50): 0%
viability at 125000 µM (read-out: Viability (%) of Scutica, 125 mM, reaction time 60): 0%
viability at 125000 µM (read-out: Viability (%) of Scutica, 125 mM, reaction time 70): 0%
viability at 125000 µM (read-out: Viability (%) of Scutica, 125 mM, reaction time 80): 0%
viability at 125000 µM (read-out: Viability (%) of Scutica, 125 mM, reaction time 90): 0%
viability at 125000 µM (read-out: Viability (%) of Scutica, 125 mM, reaction time 110): 0%
viability at 125000 µM (read-out: Viability (%) of Scutica, 125 mM, reaction time 120): 0%
viability at 250000 µM (read-out: Viability (%) of Scutica, 250 mM, reaction time 10): 0%
viability at 250000 µM (read-out: Viability (%) of Scutica, 250 mM, reaction time 20): 0%
viability at 250000 µM (read-out: Viability (%) of Scutica, 250 mM, reaction time 30): 0%
viability at 250000 µM (read-out: Viability (%) of Scutica, 250 mM, reaction time 40): 0%
viability at 250000 µM (read-out: Viability (%) of Scutica, 250 mM, reaction time 50): 0%
viability at 250000 µM (read-out: Viability (%) of Scutica, 250 mM, reaction time 60): 0%
viability at 250000 µM (read-out: Viability (%) of Scutica, 250 mM, reaction time 70): 0%
viability at 250000 µM (read-out: Viability (%) of Scutica, 250 mM, reaction time 80): 0%
viability at 250000 µM (read-out: Viability (%) of Scutica, 250 mM, reaction time 90): 0%
viability at 250000 µM (read-out: Viability (%) of Scutica, 250 mM, reaction time 110): 0%
viability at 250000 µM (read-out: Viability (%) of Scutica, 250 mM, reaction time 120): 0%
viability at 500000 µM (read-out: Viability (%) of Scutica, 500 mM, reaction time 10): 0%
viability at 500000 µM (read-out: Viability (%) of Scutica, 500 mM, reaction time 20): 0%
viability at 500000 µM (read-out: Viability (%) of Scutica, 500 mM, reaction time 30): 0%
viability at 500000 µM (read-out: Viability (%) of Scutica, 500 mM, reaction time 40): 0%
viability at 500000 µM (read-out: Viability (%) of Scutica, 500 mM, reaction time 50): 0%
viability at 500000 µM (read-out: Viability (%) of Scutica, 500 mM, reaction time 60): 0%
viability at 500000 µM (read-out: Viability (%) of Scutica, 500 mM, reaction time 70): 0%
viability at 500000 µM (read-out: Viability (%) of Scutica, 500 mM, reaction time 80): 0%
viability at 500000 µM (read-out: Viability (%) of Scutica, 500 mM, reaction time 90): 0%
viability at 500000 µM (read-out: Viability (%) of Scutica, 500 mM, reaction time 110): 0%
viability at 500000 µM (read-out: Viability (%) of Scutica, 500 mM, reaction time 120): 0%
